Results: ChEMBL document CHEMBL4765493, “Berberine Directly Targets the NEK7 Protein to Block the NEK7-NLRP3 Interaction and Exert Anti-inflammatory Activity” (J Med Chem, 2021)
The source made the active and inactive calls. No cut-off for these calls is given here.

What was measured:
[1] = tested on: THP-1; assay: Inhibition of LPS + nigericin-induced caspase-1 activation in human THP-1 cells pre-treatment for 4 hrs before LPS + nigericin by immunoblot analysis; assay type: functional, cell-based
[2] = tested on: Mus musculus; assay: Antiinflammatory activity in NEK7 wild type C57BL/6 mouse model assessed as reduction in lesion in spleen in at 5 mg/kg, ip dosed three times every 12 hrs followed by LPS challenge by H and E staining; assay type: functional, organism-based
[3] = tested on: HEK293; assay: Inhibition of NEK7 R121A mutant-NLRP3 interaction (unknown origin) expressed in HEK293 cells at 10 uM incubated for 24 hrs by Co-IP assay; assay type: cell-based; conditions: Homo sapiens
[4] = tested on: BMDM; assay: Inhibition of LPS + nigericin-induced caspase-1 activation in mouse BMDM at 2.5 to 20 uM pre-treatment for 4 hrs before LPS + nigericin by immunoblot analysis; assay type: functional, tissue-based; conditions: dose 2.5-20 µM
[5] = Inhibition of LPS + nigericin-induced IL-1beta secretion in PMA-differentiated human THP-1 cells at 20 uM incubated for 24 hrs by ELISA; assay type: functional
[6] = tested on: Mus musculus; assay: Antiinflammatory activity in NEK7 wild type C57BL/6 mouse model assessed as reduction in lesion in heart in at 5 mg/kg, ip dosed three times every 12 hrs followed by LPS challenge by H and E staining; assay type: functional, organism-based
[7] = biological target: T1, Serine/threonine-protein kinase Nek7 (Homo sapiens, UniProt Q8TDX7); assay: Binding affinity to NEK7 in PMA-differentiated human THP-1 cells at 100 uM incubated for 8 hrs by streptavidin-bead enrichment and immunoblot assay; assay type: cell-based
Target sequence in this assay (Q8TDX7 whole entry, looked up): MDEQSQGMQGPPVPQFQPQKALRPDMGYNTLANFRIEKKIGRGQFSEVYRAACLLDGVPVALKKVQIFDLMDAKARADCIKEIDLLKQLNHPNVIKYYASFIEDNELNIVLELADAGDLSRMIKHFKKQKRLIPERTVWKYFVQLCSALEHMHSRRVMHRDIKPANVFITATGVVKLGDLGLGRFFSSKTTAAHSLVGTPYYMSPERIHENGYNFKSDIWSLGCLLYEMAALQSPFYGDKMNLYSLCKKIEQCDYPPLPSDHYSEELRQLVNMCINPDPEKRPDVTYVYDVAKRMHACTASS

[8] = Toxicity in mouse BMDM cells assessed as induction of cell death up to 40 uM incubated for 24 hrs by MTS assay; assay type: cell-based
[9] = tested on: THP-1; assay: Inhibition of LPS + nigericin-induced IL-1beta secretion in human THP-1 cells pre-treatment for 4 hrs before LPS + nigericin by immunoblot analysis; assay type: functional, cell-based
[10] = tested on: Mus musculus; assay: Inhibition of serum IL-1beta production in NEK7 wild type C57BL/6 mouse model at 5 mg/kg, ip dosed three times every 12 hrs followed by LPS challenge by ELISA; assay type: functional, organism-based
[11] = tested on: Mus musculus; assay: Antiinflammatory activity in NEK7 wild type C57BL/6 mouse model assessed as reduction in inflammatory infiltration in liver at 5 mg/kg, ip dosed three times every 12 hrs followed by LPS challenge by H and E staining; assay type: functional, organism-based
[12] = tested on: Mus musculus; assay: Antiinflammatory activity in NEK7 wild type C57BL/6 mouse model assessed as reduction in lesion in kidney in at 5 mg/kg, ip dosed three times every 12 hrs followed by LPS challenge by H and E staining; assay type: functional, organism-based
[13] = biological target: T1, Serine/threonine-protein kinase Nek7; assay: Binding affinity to purified recombinant human NEK7 by SPR analysis
Target sequence in this assay (Q8TDX7 whole entry): as the sequence (Q8TDX7 whole entry, looked up) above

[14] = tested on: HEK293; assay: Inhibition of NEK7-NLRP3 interaction (unknown origin) expressed in HEK293 cells at 10 uM incubated for 24 hrs by Co-IP assay; assay type: cell-based; conditions: Homo sapiens
[15] = tested on: Mus musculus; assay: Inhibition of serum IL-1beta production in NEK7 knockdown C57BL/6 mouse model at 5 mg/kg, ip dosed three times every 12 hrs followed by LPS challenge by ELISA; assay type: functional, organism-based
[16] = tested on: BMDM; assay: Inhibition of LPS + nigericin-induced pro-IL-1beta expression in mouse BMDM at 2.5 to 20 uM pre-treatment for 4 hrs before LPS + nigericin by immunoblot analysis; assay type: functional, tissue-based; conditions: dose 2.5-20 µM
[17] = tested on: THP-1; assay: Inhibition of LPS + nigericin-induced ASC-pyroptosome formation in human THP-1 cells at 5 to 10 uM uM pre-treatment for 4 hrs before LPS + nigericin addition by immunofluorescence analysis; assay type: functional, cell-based; conditions: dose 5-10 µM
[18] = biological target: T1, Serine/threonine-protein kinase Nek7; assay: Inhibition of purified recombinant human NEK7 incubated for 15 mins before ATP and substrate addition and further incubated for 40 mins by ADPGlo kinase assay
Target sequence in this assay (Q8TDX7 whole entry): as the sequence (Q8TDX7 whole entry, looked up) above

[19] = Inhibition of LPS + nigericin-induced IL-1beta secretion in PMA-differentiated human THP-1 cells incubated for 1 to 24 hrs by Immunoblot analysis; assay type: functional, cell-based
[20] = tested on: HEK293; assay: Inhibition of NEK7-NLRP3 interaction (unknown origin) expressed in HEK293 cells incubated for 24 hrs by Co-IP assay; assay type: cell-based; conditions: Homo sapiens
[21] = tested on: THP-1; assay: Inhibition of LPS + nigericin-induced pro-IL-beta expression in human THP-1 cells at 2.5 to 20 uM pre-treatment for 4 hrs before LPS + nigericin by immunoblot analysis; assay type: functional, cell-based; conditions: dose 2.5-20 µM
[22] = tested on: BMDM; assay: Inhibition of LPS + nigericin-induced IL-1beta secretion in mouse BMDM at 2.5 to 20 uM pre-treatment for 4 hrs before LPS + nigericin by immunoblot analysis; assay type: functional, tissue-based; conditions: dose 2.5-20 µM
[23] = tested on: THP-1; assay: Inhibition of LPS + nigericin-induced NLRP3 expression in human THP-1 cells at 2.5 to 20 uM pre-treatment for 4 hrs before LPS + nigericin by immunoblot analysis; assay type: functional, cell-based; conditions: dose 2.5-20 µM
[24] = tested on: THP-1; assay: Inhibition of AIM2-induced IL-1beta activation in human THP-1 cells at 10 uM pre-treatment for 2 hrs before AIM2 addition; assay type: functional, cell-based
[25] = tested on: THP-1; assay: Inhibition of NEK7-NLRP3 interaction in human THP-1 cells incubated for 24 hrs by Co-IP assay; assay type: cell-based
[26] = tested on: BMDM; assay: Inhibition of LPS + nigericin-induced NLRP3 expression in mouse BMDM at 2.5 to 20 uM pre-treatment for 4 hrs before LPS + nigericin by immunoblot analysis; assay type: functional, tissue-based; conditions: dose 2.5-20 µM
[27] = Toxicity in mouse BMDM cells assessed as induction of apoptosis by measuring cleaved caspase-7 levels up to 40 uM incubated for 24 hrs by immunoblot analysis; assay type: cell-based
[28] = biological target: T1, Serine/threonine-protein kinase Nek7; assay: Binding affinity to NEK7 in PMA-differentiated human THP-1 cells assessed as reduction in Cy3-labeled target proteins at 100 uM incubated for 8 hrs using probe-16 by fluorescent gel imaging analysis; assay type: cell-based
Target sequence in this assay (Q8TDX7 whole entry, looked up): as above

[29] = Toxicity in mouse BMDM cells assessed as induction of apoptosis by measuring cleaved caspase-3 levels up to 40 uM incubated for 24 hrs by immunoblot analysis; assay type: cell-based
[30] = Toxicity in mouse BMDM cells assessed as induction of apoptosis by measuring cleaved caspase-9 levels up to 40 uM incubated for 24 hrs by immunoblot analysis; assay type: cell-based
[31] = tested on: Mus musculus; assay: Antiinflammatory activity in NEK7 wild type C57BL/6 mouse model assessed as reduction in lesion in lung in at 5 mg/kg, ip dosed three times every 12 hrs followed by LPS challenge by H and E staining; assay type: functional, organism-based

With `COc1ccc2cc3[n+](cc2c1OC)CCc1cc2c(cc1-3)OCO2.[Cl-]` [BERBERINE CHLORIDE] the inhibition [1] was “Active”, the Activity [2] was “Active” and the inhibition [3] was “inactive”. For the same molecule, the inhibition [4] was “Active”, the inhibition at 20 µM [5] was 72% and the Activity [6] was “Active”. For the same molecule, the Activity [7] was “Active”, the Activity [8] was “Non-Toxic” and the inhibition [9] was “Active”. The Activity [10] was “Active”, the Activity [11] was “Active” and the Activity [12] was “Active”. For the same molecule, the Kd [13] was 15.6 µM, the inhibition [14] was “Active” and the Activity [15] was “inactive”. The inhibition [16] was “inactive”, the inhibition [17] was “Active” and the IC50 [18] was 4.2 µM. For the same molecule, the IC50 [19] was 5.1 µM, the inhibition [20] was “Dose-dependent effect” and the inhibition [21] was “inactive”. For the same molecule, the inhibition [22] was “Active”, the inhibition [23] was “inactive” and the inhibition [24] was “inactive”. The inhibition [25] was “Dose-dependent effect”, the inhibition [26] was “inactive” and the Activity [27] was “Non-Toxic”. The Activity [28] was “Active”, the Activity [29] was “Non-Toxic” and the Activity [30] was “Non-Toxic”. For the same molecule, the Activity [31] was “Active”.
